Experimental findings from EPA's ToxValDB 9.5 (doi:10.2903/j.efsa.2010.1906) are described below.

One data set has as its system Oryctolagus sp. Particulars: developmental; development.
For a further data set, the system named is Colinus virginianus. Particulars: acute, oral, mortality.
In a further data set the test system is Bibionidae. Particulars: chronic/long-term; duration: 28 days; development.
In a further data set the test system is Landoltia sp. Particulars: acute; duration: 14 days.
The next data set has as its system Anas platyrhynchos. Particulars: reproductive.
A further data set has as its system Lepomis macrochirus. Particulars: acute; duration: 96 hours; mortality.
The next data set has as its system Rattus norvegicus. Particulars: oral.
Another data set concerns Apis mellifera. Particulars: acute; duration: 48 hours; oral; unspecified; mortality.
The subject of the next data set is Canidae. As to conditions: subchronic; duration: 90 days; oral; F; Dog Other; body weight.
The next data set deals with Pimephales promelas. Particulars: chronic/long-term; duration: 34 days; reproduction.
In a further data set the test system is Mus musculus. As to conditions: chronic; histopathology: neoplastic.
Another data set has as its system Daphnia magna. As to conditions: chronic/long-term; duration: 21 days; reproduction.
A further data set has as its system Folsomia candida. Particulars: chronic/long-term, duration: 28 days.

Values after ≈ are worked out from the molar mass of the structure shown.

For orientation: NOAEL means the highest dose or exposure tested at which no adverse effect was seen.

In the case of `CCOc1cc(Oc2ccc(C(F)(F)F)cc2Cl)ccc1[N+](=O)[O-]` [Oxyfluorfen], the NOAEL turned out to be 30 mg/kg-day in the data set on Oryctolagus sp.; 20 mg/kg-day in the data set with Rattus norvegicus (chronic, duration: 2 years); 2.17 mg/kg-day with Canidae; 3 mg/kg-day in the data set with Mus musculus. The LC50 was above 1000 mg/kg in the data set with Tagia sp. (acute, duration: 14 days, mortality); 0.21 µg/mL (≈ 0.581 µM) in the data set with Lepomis macrochirus; 2.78 mg/kg with Folsomia candida (mortality). Moreover, the NOEC in the data set on Tagia sp. (chronic/long-term, duration: 56 days) was determined as 24 mg/kg; in the data set on Bibionidae, 0.08 mg/L; in the data set with Landoltia sp., 0.00195 mg/L; in the data set with Pimephales promelas, 0.038 mg/L; with Daphnia magna, 0.013 mg/L; in the data set on Folsomia candida (reproduction), 1.25 mg/kg. For the same compound, the LD50 in the data set on Colinus virginianus (diet) was above 462 mg/kg-day; with Colinus virginianus, above 2150 mg/kg-day; in the data set on Rattus norvegicus (acute, mortality), above 5000 mg/kg-day; in the data set on Apis mellifera it was above 100 µg/piece. Also, in the data set on Anas platyrhynchos, the NOEL turned out to be 64.7 mg/kg-day.
